{"source": "patent US20190084939A1", "about": "“ANALOGS OF FEXARAMINE AND METHODS OF MAKING AND USING” (Salk Institute for Biological Studies, priority 2014, published 2019)", "key": {"[1]": {"test_system": "diet-induced obesity (DIO) mice", "test": "chronic PO fexaramine in diet-induced obesity (DIO) mice", "type": "in vivo", "conditions": "for glucose tolerance and insulin sensitivity (GTT, ITT): PO 5 weeks", "description": "FIGS. 2A-2G are graphs illustrating the reduction of diet-induced obesity and improvement in metabolic homeostasis with fexaramine. […] Data represent the mean±STD. Statistical analysis was performed with the Student's t test (*p<0.05, **p<0.01).\nThe physiological effects of fexaramine in established obesity (diet-induced obesity, DIO) models were evaluated. […]"}, "[2]": {"test_system": "serum bile acid composition", "test": "serum bile acid composition by mass spectrometry in HFD mice", "type": "in vivo", "conditions": "100 mg/kg/day per os 5 week", "description": "Mice fed a HFD for 14 weeks were maintained on a HFD and treated with vehicle or fexaramine (100 mg/kg/day per os for 5 week). Serum bile acid composition was determined by mass spectrometry. N.D not determined."}, "chow-fed mice": {"test_system": "chow-fed mice", "test": "chronic PO fexaramine in normal chow-fed mice", "type": "in vivo", "description": "FIGS. 3A-3D are line graphs and a bar graph showing the effects of fexaramine administration in normal chow-fed mice. The mice were treated with vehicle or fexaramine (100 mg/kg) via PO for 5 weeks. Data represent the mean±STD. Statistical analysis as performed with the Student's t test (*p<0.05, **p<0.01).\nTo investigate the physiological effects of intestinal FXR activation by fexaramine, mice were subjected to chronic fexaramine (100 mg/kg Fex) PO treatment for 5 weeks."}, "human TGR5": {"molecular_target": "T1, human TGR5 (Homo sapiens, UniProt Q8TDU6)", "T1 construct": "expressed in transfected cells; host or cells: HEK293 cells", "T1 sequence (Q8TDU6 1-330)": "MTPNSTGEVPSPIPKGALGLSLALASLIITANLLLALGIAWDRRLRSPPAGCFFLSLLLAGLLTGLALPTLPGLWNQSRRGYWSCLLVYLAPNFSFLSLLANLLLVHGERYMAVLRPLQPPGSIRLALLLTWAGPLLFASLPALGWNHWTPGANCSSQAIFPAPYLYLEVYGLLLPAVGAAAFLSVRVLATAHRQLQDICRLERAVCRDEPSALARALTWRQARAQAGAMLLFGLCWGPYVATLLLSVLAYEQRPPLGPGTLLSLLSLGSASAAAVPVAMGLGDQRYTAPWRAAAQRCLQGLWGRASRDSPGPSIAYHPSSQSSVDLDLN", "test": "TGR5 activation, cAMP-response element luciferase in HEK293 cells", "type": "cell-based", "conditions": "24 hours after transfection", "description": "HEK293 cells were transfected with expression vectors for cAMP-response element luciferase, β-galactosidase and human TGR5. 24 hours after transfection, cells were treated with fexaramine or INT-777 (a TGR5 agonist)."}, "TGR5 null mice": {"test_system": "TGR5 null mice", "test": "chronic PO fexaramine in HFD-fed TGR5-null mice", "type": "in vivo", "conditions": "100 mg/kg/day PO 5 weeks", "description": "HFD-fed TGR5-null mice were treated with vehicle or fexaramine (100 mg/kg os daily for 5 weeks with HFD, n=10). (A) Ileal FXR target gene expressions (B) Serum BA levels (C) Fasting glucose levels (D) Glucose tolerance test (E) Core body temperature (F) Oxygen consumption rate (G) Carbon dioxide production (H) Gene expression in BAT (I) Body weight curve (J) Body composition by MRI (K) Insulin Tolerance Test (L) Hepatic gene expression (M) Hepatic TG levels (N) and Gene expression in soleus of TGR5 knockout mice with and without fexaramine treatment. Data represent the mean±SD. Statistical analysis was performed with the Student's t test. *p<0.05, **p<0.01.\nTo address this possibility, HFD-fed TGR5 null mice were chronically treated with Fex (100 mg/kg/day PO for 5 weeks). […] In particular, the anti-lipogenic effects of Fex in the liver appear to require TGR5 activation, as key hepatic lipogenic genes and liver triglyceride content were not affected by Fex treatment (FIGS. 11L, 11M)."}, "ob/ob mice": {"test_system": "ob/ob mice", "test": "fexaramine and deuterated analogs in ob/ob mice, 2 weeks", "type": "in vivo", "conditions": "2 weeks at 50 mg/kg PO", "description": "An in vivo study of fexaramine and selectively-deuterated fexaramine compounds (FIG. 29A) was performed. Briefly, ob/ob mice were treated daily with vehicle, Fex, or deuterated analogs (50 mg kg^−1) by oral (PO) gavage for 2 weeks. Subsequently, body weight, body temperature, fasting blood glucose and insulin levels, insulin secretion, and GLP1 section were measured, and glucose tolerance tests (GTTs) performed."}}, "note": "Entries after “also recorded” stand apart in the source; their conditions may differ."}
{"smiles": "COC(=O)/C=C/c1cccc(N(Cc2ccc(-c3ccc(N(C)C)cc3)cc2)C(=O)C2CCCCC2)c1", "note": "[Fexaramine, fexaramine]", "values": [{"measurement": "BAT expression of ERRγ, PGC-1α, PGC-1β and target genes", "setting": "[1]; DIO mice", "value": "induction"}, {"measurement": "PKA activity in BAT", "setting": "[1]; DIO mice", "value": "increased PKA activity"}, {"measurement": "accumulation of lipid vesicles in brown adipose tissue (BAT)", "setting": "[1]; DIO mice", "value": "markedly reduced"}, {"measurement": "activity (ambulatory counts)", "setting": "[1]; DIO mice", "value": "more active than control mice"}, {"measurement": "bile acid pool size", "setting": "[1]; DIO mice", "value": "reducing"}, {"measurement": "brown fat-like signature genes and respiratory capacity of stromal vascular fraction of inguinal adipose tissue", "setting": "[1]; DIO mice", "value": "increased"}, {"measurement": "circulating FGF15", "setting": "[1]; DIO mice", "value": "increase"}, {"measurement": "expression of TNFα, MCP-1, IL-1α and F4/80 in visceral and brown adipose depots", "setting": "[1]; DIO mice", "value": "reduced"}, {"measurement": "fraction of lithocholic acid in circulating bile acids", "setting": "[1]; DIO mice", "value": "increasing"}, {"measurement": "fraction of taurocholic acid in circulating bile acids", "setting": "[1]; DIO mice", "value": "decreasing"}, {"measurement": "levels of IKK-ε and TBK1 in adipose tissue", "setting": "[1]; DIO mice", "value": "reduced levels"}, {"measurement": "liver lipid droplets (histology)", "setting": "[1]; DIO mice", "value": "reduction in lipid droplets"}, {"measurement": "mTORC1 pathway, S6K phosphorylation in gonadal WAT", "setting": "[1]; DIO mice", "value": "reduced S6K phosphorylation"}, {"measurement": "phosphorylation level of p38 in BAT", "setting": "[1]; DIO mice", "value": "increased"}, {"measurement": "ratio of unconjugated to conjugated cholic acid", "setting": "[1]; DIO mice", "value": "remarkably increased"}, {"measurement": "respiratory exchange ratio", "setting": "[1]; DIO mice", "value": "No changes"}, {"measurement": "serum alanine aminotransferase (ALT) levels", "setting": "[1]; DIO mice", "value": "decreased"}, {"measurement": "serum lactate levels", "setting": "[1]; DIO mice", "value": "significantly decreased"}, {"measurement": "glucose, insulin, leptin, cholesterol and resistin levels", "setting": "[1]; DIO mice, 100 mg/kg PO 5 weeks", "value": "reduced"}, {"measurement": "increase of core body temperature", "setting": "[1]; DIO mice, 100 mg/kg PO 5 weeks", "value": "approximately 1.5 °C"}, {"measurement": "overall fat mass (MRI)", "setting": "[1]; DIO mice, 100 mg/kg PO 5 weeks", "value": "reduced overall fat mass"}, {"measurement": "serum inflammatory cytokines TNFα, IL-1α, IL-1β, IL-17 and MCP-1", "setting": "[1]; DIO mice, 100 mg/kg PO 5 weeks", "value": "markedly decreased"}, {"measurement": "weight gain", "setting": "[1]; DIO mice, 100 mg/kg PO 5 weeks", "value": "prevented weight gain"}, {"measurement": "wet weights of subcutaneous and visceral adipose depots", "setting": "[1]; DIO mice, 100 mg/kg PO 5 weeks", "value": "significant reductions"}, {"measurement": "prevention of weight gain over doses", "setting": "[1]; DIO mice, 10, 50 or 100 mg/kg PO 5 weeks", "value": "dose-dependent manner"}, {"measurement": "glucose tolerance and insulin sensitivity (GTT, ITT)", "setting": "[1]; DIO mice", "value": "improved glucose clearance; also recorded: improved insulin sensitivity"}, {"measurement": "glucose tolerance and insulin sensitivity (GTT, ITT)", "setting": "[1]; DIO mice, listed as Fex", "value": "dose-dependent improvements"}, {"measurement": "FGF15 expression in ileum", "setting": "[1]; DIO mice, RNA-Seq", "value": "dramatically upregulated"}, {"measurement": "OXPHOS gene changes in inguinal, gonadal and brown adipose depots", "setting": "[1]; DIO mice, RNA-sequencing", "value": "selectively enhance OXPHOS activity only in BAT"}, {"measurement": "HSL phosphorylation and serum levels of free fatty acids", "setting": "[1]; DIO mice, chronic treatment", "value": "pronounced increase"}, {"measurement": "cross-sectional area of adipocytes in visceral depots", "setting": "[1]; DIO mice, chronic treatment", "value": "markedly reduced"}, {"measurement": "expression of mucosal defense genes Occludin and Muc2", "setting": "[1]; DIO mice, chronic treatment", "value": "increased expression"}, {"measurement": "hepatic CYP7A1 expression (mRNA and protein)", "setting": "[1]; DIO mice, chronic treatment", "value": "significantly repressed"}, {"measurement": "hepatic expression of CYP8B1 and CYP27A1", "setting": "[1]; DIO mice, chronic treatment", "value": "not affected"}, {"measurement": "hepatic expression of gluconeogenic and lipogenic genes", "setting": "[1]; DIO mice, chronic treatment", "value": "reduced"}, {"measurement": "hepatic triglycerides", "setting": "[1]; DIO mice, chronic treatment", "value": "marked decrease"}, {"measurement": "liver FXR target genes SHP and BSEP", "setting": "[1]; DIO mice, chronic treatment", "value": "not altered"}, {"measurement": "serum catecholamine levels and β3-adrenergic receptor expression", "setting": "[1]; DIO mice, chronic treatment", "value": "increased"}, {"measurement": "weight gain at the highest dose", "setting": "[1]; DIO mice, highest dose", "value": "almost completely abrogated"}, {"measurement": "abundance of multi-locular, UCP1-expressing adipocytes in inguinal adipose tissue", "setting": "[1]; DIO mice, immunohistochemistry", "value": "substantial increase"}, {"measurement": "respiratory exchange ratio", "setting": "[1]; DIO mice, listed as Fex", "value": "similar"}, {"measurement": "serum lactate levels", "setting": "[1]; DIO mice, listed as Fex", "value": "significantly reduced"}, {"measurement": "food intake", "setting": "[1]; DIO mice, versus vehicle", "value": "not attributable to difference in food intake"}, {"measurement": "carbon dioxide production (VCO2)", "setting": "[1]; DIO mice, weight-matched", "value": "exhaled more carbon dioxide"}, {"measurement": "oxygen consumption (VO2)", "setting": "[1]; DIO mice, weight-matched", "value": "consistently higher"}, {"measurement": "intestinal toxicity (histology of ileum and colon)", "setting": "[1]; mouse, in vivo, po", "value": "no signs of intestinal toxicity"}, {"measurement": "Bile Acid Composition (%): CA", "setting": "[2]", "value": 7.51, "unit": "%"}, {"measurement": "Bile Acid Composition (%): CDCA", "setting": "[2]", "value": 2.51, "unit": "%"}, {"measurement": "Bile Acid Composition (%): DCA", "setting": "[2]", "value": 7.67, "unit": "%"}, {"measurement": "Bile Acid Composition (%): GLCA", "setting": "[2]", "value": 0.51, "unit": "%"}, {"measurement": "Bile Acid Composition (%): HDCA", "setting": "[2]", "value": 0.36, "unit": "%"}, {"measurement": "Bile Acid Composition (%): LCA", "setting": "[2]", "value": 28.13, "unit": "%"}, {"measurement": "Bile Acid Composition (%): T-UDCA", "setting": "[2]", "value": 3.07, "unit": "%"}, {"measurement": "Bile Acid Composition (%): T-beta MCA", "setting": "[2]", "value": 29.16, "unit": "%"}, {"measurement": "Bile Acid Composition (%): TCA", "setting": "[2]", "value": 12.23, "unit": "%"}, {"measurement": "Bile Acid Composition (%): TCDCA", "setting": "[2]", "value": 1.13, "unit": "%"}, {"measurement": "Bile Acid Composition (%): TDCA", "setting": "[2]", "value": 1.02, "unit": "%"}, {"measurement": "Bile Acid Composition (%): UDCA", "setting": "[2]", "value": 0.05, "unit": "%"}, {"measurement": "Bile Acid Composition (%): omega MCA", "setting": "[2]", "value": 6.65, "unit": "%"}, {"measurement": "weight gain, basal metabolic activity and glucose tolerance", "setting": "chow-fed mice; chow-fed mice, 100 mg/kg PO 5 weeks", "value": "indistinguishable from vehicle-treated mice"}, {"measurement": "glucose homeostasis", "setting": "chow-fed mice; normal chow-fed mice, range of doses", "value": "no effects observed"}, {"measurement": "activation of TGR5", "setting": "human TGR5", "value": "fails to activate TGR5"}, {"measurement": "activation of TGR5", "setting": "human TGR5; listed as Fex", "value": "does not activate"}, {"measurement": "FXR target genes in the ileum incl. FGF15", "setting": "TGR5 null mice", "value": "induced"}, {"measurement": "core body temperature and metabolic rate", "setting": "TGR5 null mice", "value": "somewhat blunted increases"}, {"measurement": "fasting glucose levels and glucose tolerance", "setting": "TGR5 null mice", "value": "moderate improvements"}, {"measurement": "hepatic lipogenic genes and liver triglyceride content", "setting": "TGR5 null mice", "value": "not affected"}, {"measurement": "serum BA levels", "setting": "TGR5 null mice", "value": "lowered"}, {"measurement": "weight gain or insulin sensitivity", "setting": "TGR5 null mice", "value": "no significant changes"}, {"measurement": "body weight", "setting": "ob/ob mice", "value": "do not affect body weight"}, {"measurement": "core body temperature", "setting": "ob/ob mice", "value": "did increase core body temperature"}, {"measurement": "fasting blood glucose levels", "setting": "ob/ob mice", "value": "does not significantly affect"}]}
